Experimental data reported in PubChem BioAssay AID1845197 (Molecular Pharmacology Branch, DTP, NCI, 2023).

Tested on: 349418-098-R tumor spheroid viability
Assay: Anticancer human tumor 349418-098-R patient-derived lung adenocarcinoma cell line growth inhibition
Details: spheroids with HUVEC and MSC; for viability, T/C: stronger effect = lower value
Source text: Multicellular complex tumor spheroid response to DNA repair inhibitors in combination with DNA-damaging drugs
This study explores the anticancer activities of DNA-damaging drugs and inhibitors of DNA damage repair, both as single agents and in combinations. Complex tumor spheroids comprised of malignant cells, endothelial cells and mesenchymal stem cells served as an in vitro model for human solid tumors. This model system incorporates physiologically relevant features and patient-derived or established malignant cell lines with clinically relevant genetic alterations from many tumor types. Twenty-six patient-derived or established malignant cell lines were evaluated representing sarcoma, melanoma, small cell lung cancer (SCLC), non-small cell lung cancer (NSCLC), as well as bladder, ovarian and pancreatic cancers. The concentration ranges selected for each drug and investigational agent were based upon clinically achievable concentrations if the clinical Cmax of the agent was known.
Compounds. The drugs and compounds olaparib (NSC753686), talazoparib (NSC767125), berzosertib (NSC777718), elimusertib (NSC800525), nedisertib (NSC802822), VX-984 (NSC792969), AZD-1390 (NSC803789), temozolomide (NSC362856), topotecan (NSC609699), trabectedin (NSC813783), staurosporine (NSC755774), and gemcitabine (NSC613327) were obtained from the National Cancer Institute (NCI) Developmental Therapeutics Program Chemical Repository. The FDA-approved anticancer drug set is available from the Developmental Therapeutics Program at https://dtp.cancer.gov/organization/dscb/obtaining/available_plates.htm. […] The stock solutions were prepared in dimethyl sulfoxide (DMSO, Sigma-Aldrich, St. Louis, MO, cat. D2650) at 400-fold the tested concentration and stored at -70 degrees C. Prior to their use, the stock solutions were diluted in fresh medium and the final DMSO concentration in the assay was 0.25% (v/v). All drugs and investigational agents were tested over a range starting from a high concentration at or near the clinical Cmax and decreasing in half-log increments. If the clinical Cmax for an agent had not been determined, the highest concentration tested was 10 microM.
Cell Lines. The patient-derived cancer cell (PDC) lines: 156681-154-R-J1-PDC, 283228-195-R-J1-PDC, 287954-098-R-J1-PDC, 292921-168-R-J2-PDC, 349418-098-R-PDC, 425362-245-T-J1-PDC, 556581-035-R-J1-PDC, and BL0293-F563-PDC were received from the NCI Patient-Derived Models Repository (PDMR, https://pdmr.cancer.gov). The established cell lines HS-SY-2 (RRID:CVCL_8719), MPNST, and SYO-1 (RRID:CVCL_7146) were obtained from the Sloan Kettering Institute. The alveolar soft parts sarcoma cell line ASPS-1 (RRID:CVCL_S738) was established at the NCI and grown from internal seed stocks. The following established cell lines were purchased from the American Type Culture Collection (ATCC, Manassas, VA): G-401 (ATCC, cat. CRL-1441, RRID:CVCL_0270), SW982 (ATCC, cat. HTB-93, RRID:CVCL_1734), VA-ES-BJ (ATCC, cat. CRL-2138, RRID:CVCL_1785), NCI-H719 (ATCC, cat. CRL-5837, RRID:CVCL_1582), NCI-H196 (ATCC, cat. CRL-5823, RRID:CVCL_1509), NCI-H841 (ATCC, cat. CRL-5845, RRID:CVCL_1595), NCI-H1618 (ATCC, cat. CRL-5879, RRID:CVCL_1480), NCI-H1876 (ATCC, cat. CRL-5902, RRID:CVCL_1503), DMS 114 (ATCC, cat. CRL-2066; RRID:CVCL_1174), NCI-H211 (ATCC, cat. CRL-5824; RRID:CVCL_1529), and SW 1271 (ATCC, cat. CRL-2177, RRID:CVCL_1716). The small cell lung cancer cell line COR-L88 was purchased from Sigma-Aldrich (cat. 92031917-1VL, RRID:CVCL_1141). The non-small cell lung cancer cell lines NCI-H226 (RRID:CVCL_1544) and NCI-H322M (RRID:CVCL_1557) were established at the NCI and grown from internal seed stocks. Pooled donor human umbilical vein endothelial cells (HUVEC, Lonza, cat. CC-2519) and human mesenchymal stem cells (hMSC, Lonza, cat. PT-2501) were purchased from Lonza (Walkersville, MD).
Cell Culture. All cells were maintained in an incubator at 37 degrees C and 5% CO2 with 95% humidity. […]

[1] = compound alone, run of 10/17/2019
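Further: spheroids exposed to compound for 7 days before measurement.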
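Wherever viability, T/C is given: percent of vehicle control viability with 100% = DMSO-treated spheroids.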

With `O=C(c1cc(Cc2n[nH]c(=O)c3ccccc23)ccc1F)N1CCN(C(=O)C2CC2)CC1` + Cn1nnc2c(C(N)=O)ncn2c1=O the IC50 (curve of first compound, second compound 1 µM) was > 30 µM, the IC50 (curve of first compound, second compound 3.16 µM) was > 30 µM and the IC50 (curve of first compound, second compound 10 µM) was 23.2 µM. For the same molecule, the IC50 (curve of first compound, second compound 31.6 µM) was 7.27 µM, the IC50 (curve of first compound, second compound 100 µM) was 1.81 µM and the viability, T/C (second compound 1 µM, first compound 0.0949 µM) was 98.5%. For the same molecule, the viability, T/C (second compound 1 µM, first compound 0.3 µM) was 98.9%, the viability, T/C (second compound 1 µM, first compound 0.949 µM) was 103% and the viability, T/C (second compound 1 µM, first compound 3 µM) was 98.7%. For the same molecule, the viability, T/C (second compound 1 µM, first compound 9.49 µM) was 79.9%, the viability, T/C (second compound 1 µM, first compound 30 µM) was 57% and the viability, T/C (second compound 3.16 µM, first compound 0.0949 µM) was 99.5%. The viability, T/C (second compound 3.16 µM, first compound 0.3 µM) was 100%, the viability, T/C (second compound 3.16 µM, first compound 0.949 µM) was 99% and the viability, T/C (second compound 3.16 µM, first compound 3 µM) was 99%. It also gave a viability, T/C (second compound 3.16 µM, first compound 9.49 µM) of 89.1%, a viability, T/C (second compound 3.16 µM, first compound 30 µM) of 60.3% and a viability, T/C (second compound 10 µM, first compound 0.0949 µM) of 103%. The viability, T/C (second compound 10 µM, first compound 0.3 µM) was 103%, the viability, T/C (second compound 10 µM, first compound 0.949 µM) was 102% and the viability, T/C (second compound 10 µM, first compound 3 µM) was 96.8%. For the same molecule, the viability, T/C (second compound 10 µM, first compound 9.49 µM) was 81.9%, the viability, T/C (second compound 10 µM, first compound 30 µM) was 40.5% and the viability, T/C (second compound 31.6 µM, first compound 0.0949 µM) was 102%. For the same molecule, the viability, T/C (second compound 31.6 µM, first compound 0.3 µM) was 98.5%, the viability, T/C (second compound 31.6 µM, first compound 0.949 µM) was 100% and the viability, T/C (second compound 31.6 µM, first compound 3 µM) was 94.7%. It also gave a viability, T/C (second compound 31.6 µM, first compound 9.49 µM) of 36.6%, a viability, T/C (second compound 31.6 µM, first compound 30 µM) of 16% and a viability, T/C (second compound 100 µM, first compound 0.0949 µM) of 96.5%. It also gave a viability, T/C (second compound 100 µM, first compound 0.3 µM) of 98%, a viability, T/C (second compound 100 µM, first compound 0.949 µM) of 78.2% and a viability, T/C (second compound 100 µM, first compound 3 µM) of 27.9%. The viability, T/C (second compound 100 µM, first compound 9.49 µM) was 10.2% and the viability, T/C (second compound 100 µM, first compound 30 µM) was 9.95%.

For `CC[C@@]1(O)C(=O)OCc2c1cc1n(c2=O)Cc2cc3c(CN(C)C)c(O)ccc3nc2-1`, the viability, T/C (compound 0.003 µM) was 99.8% [middle of 10 runs], the viability, T/C (compound 0.00949 µM) was 97.5% [middle of 10 runs] and the viability, T/C (compound 0.03 µM) was 77.6% [middle of 10 runs]. The viability, T/C (compound 0.0949 µM) was 19.6% [middle of 10 runs], the viability, T/C (compound 0.3 µM) was 4.75% [middle of 10 runs] and the IC50 [1] was 58.3 nM [middle of 5 runs]. For the same molecule, the IC50 (compound alone, run of 10/25/2019) was 43.3 nM [middle of 5 runs].

With `Cn1nnc2c(C(N)=O)ncn2c1=O` the viability, T/C (compound 1 µM) was 101% [middle of 10 runs], the viability, T/C (compound 3.16 µM) was 101% [middle of 10 runs] and the viability, T/C (compound 10 µM) was 100% [middle of 10 runs]. For the same molecule, the viability, T/C (compound 31.6 µM) was 102% [middle of 10 runs], the viability, T/C (compound 100 µM) was 103% [middle of 10 runs] and the IC50 [1] was > 100 µM.
